Assay results from the supplement of paper PMC12463676, “Small-molecule dissolution of stress granules by redox modulation benefits ALS models” (Nature Chemical Biology, 2025).

What follows are targets tested with NC(=O)CCCCC1CCSS1 [lipoamide] (assay: thermal stability z-score vs DMSO; higher = more thermally stabilized by treatment). Settings: HeLa; lipoamide concentration 100 µM; arsenate co-treatment: 1 mM arsenate 1 h.
Procedure: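 Cellular thermal proteome profiling in HeLa cells. Cells were treated with 100 µM lipoamide for 1 h, with or without 1 mM arsenate for a further 1 h, then heated to ten temperatures (37-66.3 °C), and soluble protein was quantified by TMT mass spectrometry relative to 0.1% DMSO controls. The thermal stability score (sum of log2 fold changes minus the abundance score) was transformed to a z-score; mean of n = 3 experiments.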
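Also: each temperature applied for 3 min, abundance score taken as mean log2 fold change at the two lowest temperatures, z-score obtained by mean subtraction and division by SD.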

Sequence of UniProt P49754 (P49754 whole entry): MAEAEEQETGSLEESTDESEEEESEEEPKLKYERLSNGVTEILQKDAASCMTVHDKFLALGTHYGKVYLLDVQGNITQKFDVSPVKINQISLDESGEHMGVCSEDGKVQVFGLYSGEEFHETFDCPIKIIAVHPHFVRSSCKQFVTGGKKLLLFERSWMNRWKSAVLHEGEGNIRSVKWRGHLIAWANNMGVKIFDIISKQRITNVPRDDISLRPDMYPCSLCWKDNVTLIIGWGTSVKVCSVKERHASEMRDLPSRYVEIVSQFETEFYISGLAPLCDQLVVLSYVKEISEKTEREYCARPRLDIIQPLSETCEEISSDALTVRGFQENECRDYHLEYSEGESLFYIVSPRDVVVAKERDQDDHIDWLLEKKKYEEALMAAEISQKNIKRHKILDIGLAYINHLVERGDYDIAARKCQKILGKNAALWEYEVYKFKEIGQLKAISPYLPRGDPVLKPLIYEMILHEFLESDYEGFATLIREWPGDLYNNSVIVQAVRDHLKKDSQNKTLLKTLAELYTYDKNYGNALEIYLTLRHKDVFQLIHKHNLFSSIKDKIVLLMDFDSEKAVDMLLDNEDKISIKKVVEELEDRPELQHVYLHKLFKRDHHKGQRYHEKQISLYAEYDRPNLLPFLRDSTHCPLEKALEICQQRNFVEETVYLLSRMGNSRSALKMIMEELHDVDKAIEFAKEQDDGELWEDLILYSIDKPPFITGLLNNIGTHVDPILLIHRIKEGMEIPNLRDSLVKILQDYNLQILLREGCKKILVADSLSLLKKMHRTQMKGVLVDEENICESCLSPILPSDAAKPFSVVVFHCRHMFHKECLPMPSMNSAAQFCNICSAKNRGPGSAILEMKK
Sequence of UniProt Q9BZM1 (Q9BZM1 whole entry): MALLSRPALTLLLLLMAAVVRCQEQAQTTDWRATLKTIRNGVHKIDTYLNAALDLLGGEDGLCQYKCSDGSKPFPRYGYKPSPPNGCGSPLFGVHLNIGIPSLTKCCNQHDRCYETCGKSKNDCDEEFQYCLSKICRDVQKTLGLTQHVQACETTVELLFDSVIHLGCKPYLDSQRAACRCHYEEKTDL
Sequence of UniProt O43464 (O43464 whole entry): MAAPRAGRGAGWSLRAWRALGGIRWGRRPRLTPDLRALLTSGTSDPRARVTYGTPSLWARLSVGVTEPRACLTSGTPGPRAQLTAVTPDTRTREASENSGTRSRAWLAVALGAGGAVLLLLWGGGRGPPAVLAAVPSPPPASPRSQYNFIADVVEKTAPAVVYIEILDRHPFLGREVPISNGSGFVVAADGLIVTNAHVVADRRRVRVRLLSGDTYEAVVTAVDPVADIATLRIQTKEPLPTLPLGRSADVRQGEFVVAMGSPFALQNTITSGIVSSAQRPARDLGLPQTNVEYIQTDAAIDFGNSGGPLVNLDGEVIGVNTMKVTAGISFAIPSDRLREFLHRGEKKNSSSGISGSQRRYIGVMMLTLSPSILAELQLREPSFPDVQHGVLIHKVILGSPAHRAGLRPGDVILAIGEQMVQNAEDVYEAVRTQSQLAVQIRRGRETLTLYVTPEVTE
Sequence of UniProt Q96E52 (Q96E52 whole entry): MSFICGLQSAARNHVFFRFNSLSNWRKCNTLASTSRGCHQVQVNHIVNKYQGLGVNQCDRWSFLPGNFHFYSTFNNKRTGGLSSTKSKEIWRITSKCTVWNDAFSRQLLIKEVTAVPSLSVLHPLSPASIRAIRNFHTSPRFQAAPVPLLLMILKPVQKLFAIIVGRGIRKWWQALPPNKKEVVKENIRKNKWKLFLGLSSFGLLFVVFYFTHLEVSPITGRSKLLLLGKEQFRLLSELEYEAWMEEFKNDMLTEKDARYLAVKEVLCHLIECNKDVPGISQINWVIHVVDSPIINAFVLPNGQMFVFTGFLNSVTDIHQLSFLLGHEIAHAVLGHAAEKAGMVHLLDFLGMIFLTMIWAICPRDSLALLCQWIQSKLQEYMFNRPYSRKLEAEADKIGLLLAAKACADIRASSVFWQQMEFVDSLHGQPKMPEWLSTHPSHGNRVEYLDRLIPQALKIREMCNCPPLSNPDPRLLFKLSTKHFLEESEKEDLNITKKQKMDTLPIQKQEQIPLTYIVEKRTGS
Sequence of UniProt Q8IWR0 (Q8IWR0 whole entry): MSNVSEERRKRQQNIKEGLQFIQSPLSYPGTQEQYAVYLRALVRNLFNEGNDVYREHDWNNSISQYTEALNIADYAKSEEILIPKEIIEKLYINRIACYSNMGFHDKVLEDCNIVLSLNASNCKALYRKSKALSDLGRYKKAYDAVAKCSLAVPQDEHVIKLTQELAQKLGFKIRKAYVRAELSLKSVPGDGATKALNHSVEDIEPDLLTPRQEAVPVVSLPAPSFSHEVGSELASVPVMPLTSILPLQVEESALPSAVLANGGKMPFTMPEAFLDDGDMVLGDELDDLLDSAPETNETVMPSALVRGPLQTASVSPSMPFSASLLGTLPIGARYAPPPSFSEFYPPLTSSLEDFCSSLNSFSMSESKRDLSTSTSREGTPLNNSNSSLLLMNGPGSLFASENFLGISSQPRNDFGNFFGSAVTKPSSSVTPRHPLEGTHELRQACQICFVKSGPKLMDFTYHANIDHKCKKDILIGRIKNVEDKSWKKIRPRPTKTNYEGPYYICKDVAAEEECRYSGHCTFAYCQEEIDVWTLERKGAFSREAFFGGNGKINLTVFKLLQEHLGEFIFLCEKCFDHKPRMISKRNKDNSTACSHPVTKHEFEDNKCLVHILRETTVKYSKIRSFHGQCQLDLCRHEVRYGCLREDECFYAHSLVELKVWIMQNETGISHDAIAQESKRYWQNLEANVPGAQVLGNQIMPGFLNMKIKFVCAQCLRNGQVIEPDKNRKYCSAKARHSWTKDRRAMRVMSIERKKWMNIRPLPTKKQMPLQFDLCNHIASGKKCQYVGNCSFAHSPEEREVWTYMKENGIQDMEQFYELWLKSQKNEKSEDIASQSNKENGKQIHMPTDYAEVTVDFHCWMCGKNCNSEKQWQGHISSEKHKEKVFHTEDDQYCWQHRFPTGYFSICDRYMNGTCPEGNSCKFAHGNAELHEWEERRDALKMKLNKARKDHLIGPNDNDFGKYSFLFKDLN
Sequence of UniProt Q9BYB4 (Q9BYB4 whole entry): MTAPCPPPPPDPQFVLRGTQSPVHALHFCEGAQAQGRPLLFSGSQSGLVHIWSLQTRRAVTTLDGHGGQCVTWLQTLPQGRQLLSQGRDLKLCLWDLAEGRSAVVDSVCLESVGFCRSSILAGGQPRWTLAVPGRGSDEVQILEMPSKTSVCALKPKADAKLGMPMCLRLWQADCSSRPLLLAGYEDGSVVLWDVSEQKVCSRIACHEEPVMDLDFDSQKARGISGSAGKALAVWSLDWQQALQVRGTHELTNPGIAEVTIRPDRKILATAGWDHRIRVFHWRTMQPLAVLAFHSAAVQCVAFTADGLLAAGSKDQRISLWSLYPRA
Sequence of UniProt Q8NCW5 (Q8NCW5 whole entry): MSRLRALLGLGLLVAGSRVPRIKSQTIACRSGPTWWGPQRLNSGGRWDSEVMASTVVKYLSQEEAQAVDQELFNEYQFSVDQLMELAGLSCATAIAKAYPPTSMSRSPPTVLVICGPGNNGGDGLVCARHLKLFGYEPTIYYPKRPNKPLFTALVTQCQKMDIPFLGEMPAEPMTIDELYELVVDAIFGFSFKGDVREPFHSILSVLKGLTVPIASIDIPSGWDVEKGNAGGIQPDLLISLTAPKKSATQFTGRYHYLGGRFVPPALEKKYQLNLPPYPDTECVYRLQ
Sequence of UniProt Q9BVC4 (Q9BVC4 whole entry): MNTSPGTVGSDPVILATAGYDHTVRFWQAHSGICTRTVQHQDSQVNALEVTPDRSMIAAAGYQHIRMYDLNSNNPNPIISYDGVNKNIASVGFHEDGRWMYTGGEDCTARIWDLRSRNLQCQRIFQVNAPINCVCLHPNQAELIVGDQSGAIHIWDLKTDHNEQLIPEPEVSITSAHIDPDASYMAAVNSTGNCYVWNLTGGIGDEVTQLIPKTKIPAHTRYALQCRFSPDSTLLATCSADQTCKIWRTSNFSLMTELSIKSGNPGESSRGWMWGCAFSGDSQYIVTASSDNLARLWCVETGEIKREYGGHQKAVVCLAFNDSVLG
Sequence of UniProt P52566 (P52566 whole entry): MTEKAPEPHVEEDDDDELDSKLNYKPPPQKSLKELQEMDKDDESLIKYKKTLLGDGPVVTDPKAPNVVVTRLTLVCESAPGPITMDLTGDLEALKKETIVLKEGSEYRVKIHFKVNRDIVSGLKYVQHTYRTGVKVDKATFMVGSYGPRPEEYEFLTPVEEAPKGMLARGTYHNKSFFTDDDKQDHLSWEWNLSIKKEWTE
Sequence of UniProt Q13112 (Q13112 whole entry, looked up): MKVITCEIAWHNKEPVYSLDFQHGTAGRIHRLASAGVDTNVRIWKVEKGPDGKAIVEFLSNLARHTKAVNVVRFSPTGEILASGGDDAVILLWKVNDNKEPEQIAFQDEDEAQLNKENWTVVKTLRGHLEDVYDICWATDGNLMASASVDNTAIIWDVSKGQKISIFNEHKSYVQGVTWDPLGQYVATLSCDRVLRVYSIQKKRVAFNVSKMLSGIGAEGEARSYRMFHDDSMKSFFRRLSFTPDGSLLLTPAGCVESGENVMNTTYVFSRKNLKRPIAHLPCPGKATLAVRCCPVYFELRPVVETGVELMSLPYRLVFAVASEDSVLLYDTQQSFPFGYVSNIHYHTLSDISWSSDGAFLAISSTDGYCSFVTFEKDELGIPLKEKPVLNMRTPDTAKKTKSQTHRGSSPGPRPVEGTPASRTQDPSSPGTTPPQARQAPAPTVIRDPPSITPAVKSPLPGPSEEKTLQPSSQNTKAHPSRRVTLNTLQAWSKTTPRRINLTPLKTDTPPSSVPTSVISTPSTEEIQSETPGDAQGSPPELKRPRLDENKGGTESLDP
Sequence of UniProt Q9UFN0 (Q9UFN0 whole entry): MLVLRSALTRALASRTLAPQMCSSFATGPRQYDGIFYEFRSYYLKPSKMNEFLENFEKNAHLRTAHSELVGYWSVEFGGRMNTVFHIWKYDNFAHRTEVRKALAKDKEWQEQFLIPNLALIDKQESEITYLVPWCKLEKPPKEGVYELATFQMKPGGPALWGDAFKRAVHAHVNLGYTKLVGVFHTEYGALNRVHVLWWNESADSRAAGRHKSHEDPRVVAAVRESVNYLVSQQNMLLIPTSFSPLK

| Target | thermal stability z-score |
| --- | --- |
| FAM83G (UniProt A6ND36) | -0.123 |
| BZW1 (UniProt Q7L1Q6) | 0.452 |
| EIF4A2 (UniProt Q14240) | 1.14 |
| AUP1 (UniProt Q9Y679) | -0.649 |
| VPS41 (UniProt P49754) | -0.0442 |
| MRPL19 (UniProt P49406) | -0.287 |
| CDK2 (UniProt P24941) | 1.12 |
| RPL36 (UniProt Q9Y3U8) | 0.354 |
| CMIP (UniProt Q8IY22) | -0.151 |
| MRPL30 (UniProt Q8TCC3) | -0.325 |
| ZC3H7A (UniProt Q8IWR0) | -0.124 |
| ATRX (UniProt P46100) | -0.0326 |
| PLA2G12A (UniProt Q9BZM1) | -0.0117 |
| ERGIC2 (UniProt Q96RQ1) | -0.942 |
| UNC13D (UniProt Q70J99) | -0.15 |
| CHAF1B (UniProt Q13112) | 1.3 |
| NAXE (UniProt Q8NCW5) | 0.137 |
| OMA1 (UniProt Q96E52) | -0.791 |
| SGTA (UniProt O43765) | 0.332 |
| CRABP2 (UniProt P29373) | 0.359 |
| GNB1L (UniProt Q9BYB4) | 0.757 |

| Target | thermal stability z-score |
| --- | --- |
| PIGG (UniProt Q5H8A4) | -0.479 |
| FZD2 (UniProt Q14332) | -1.45 |
| HTRA2 (UniProt O43464) | -0.984 |
| NCEH1 (UniProt Q6PIU2) | -0.5 |
| RABIF (UniProt P47224) | 0.243 |
| IKBKG (UniProt Q9Y6K9) | -0.275 |
| MLST8 (UniProt Q9BVC4) | -0.537 |
| NIPSNAP3A (UniProt Q9UFN0) | 0.144 |
| ARHGDIB (UniProt P52566) | 0.0327 |
| PTBP1 (UniProt P26599) | 1.1 |
| CEP131 (UniProt Q9UPN4) | -0.287 |
| DNAJA2 (UniProt O60884) | -0.922 |
| PLEKHF2 (UniProt Q9H8W4) | -0.1 |
| NCAPD2 (UniProt Q15021) | -0.565 |
| DKC1 (UniProt O60832) | 0.735 |
| MSLN (UniProt Q13421) | -0.583 |
| UBE2G2 (UniProt P60604) | 0.327 |
| WDFY2 (UniProt Q96P53) | -0.402 |
| BCL10 (UniProt O95999) | 0.00285 |
| PNO1 (UniProt Q9NRX1) | 0.465 |
| ZBTB10 (UniProt Q96DT7) | 0.00974 |

| Target | thermal stability z-score |
| --- | --- |
| APOL2 (UniProt Q9BQE5) | -0.399 |
| GPX4 (UniProt P36969) | -0.524 |
| CLPB (UniProt Q9H078) | -0.507 |
| FNDC3B (UniProt Q53EP0) | -0.593 |
| TTC1 (UniProt Q99614) | -0.0842 |
| CDK9 (UniProt P50750) | -0.226 |
| MBLAC2 (UniProt Q68D91) | -0.0603 |
| MOSPD1 (UniProt Q9UJG1) | -0.167 |
| MCOLN1 (UniProt Q9GZU1) | -0.724 |
| KPNA1 (UniProt P52294) | -0.0607 |
| STAM2 (UniProt O75886) | 0.291 |
| LARP1 (UniProt Q6PKG0) | 0.375 |
| UACA (UniProt Q9BZF9) | -0.163 |
| DUS2 (UniProt Q9NX74) | -0.517 |
| DMAP1 (UniProt Q9NPF5) | -0.551 |
| IMPA1 (UniProt P29218) | 0.595 |
| SH2D3A (UniProt Q9BRG2) | 0.139 |
| LRCH3 (UniProt Q96II8) | -0.0719 |
| MCFD2 (UniProt Q8NI22) | -0.221 |

Same assay, conditions: HeLa; lipoamide concentration 100 µM; arsenate co-treatment: none

| Target | thermal stability z-score |
| --- | --- |
| FAM83G (UniProt A6ND36) | 0.00979 |
| BZW1 (UniProt Q7L1Q6) | 0.578 |
| EIF4A2 (UniProt Q14240) | 0.893 |
| AUP1 (UniProt Q9Y679) | -1.09 |
| VPS41 (UniProt P49754) | -0.511 |
| MRPL19 (UniProt P49406) | -0.00717 |
| CDK2 (UniProt P24941) | 0.288 |
| RPL36 (UniProt Q9Y3U8) | -0.0802 |
| CMIP (UniProt Q8IY22) | -0.146 |
| MRPL30 (UniProt Q8TCC3) | 0.266 |
| ZC3H7A (UniProt Q8IWR0) | -0.0131 |
| ATRX (UniProt P46100) | 0.195 |
| PLA2G12A (UniProt Q9BZM1) | -0.134 |
| ERGIC2 (UniProt Q96RQ1) | -0.866 |
| UNC13D (UniProt Q70J99) | -0.154 |
| CHAF1B (UniProt Q13112) | 1.08 |
| NAXE (UniProt Q8NCW5) | 0.266 |
| OMA1 (UniProt Q96E52) | -1.46 |
| SGTA (UniProt O43765) | 0.487 |
| CRABP2 (UniProt P29373) | 1.24 |
| GNB1L (UniProt Q9BYB4) | -0.25 |
| PIGG (UniProt Q5H8A4) | -0.752 |
| FZD2 (UniProt Q14332) | -1.01 |
| HTRA2 (UniProt O43464) | -0.617 |
| NCEH1 (UniProt Q6PIU2) | -0.83 |
| RABIF (UniProt P47224) | 0.233 |
| IKBKG (UniProt Q9Y6K9) | -0.162 |
| MLST8 (UniProt Q9BVC4) | 0.0244 |
| NIPSNAP3A (UniProt Q9UFN0) | 0.432 |
| ARHGDIB (UniProt P52566) | -0.0579 |
